Test results taken from EP1464336A1, “Use of tryprostatin A for the reversal of cancer drug resistance” (Humboldt-Universität zu Berlin, priority 2003, dated 2004).

Tests used:
[1] = system: cell cycle progression at the G2/M phase; conditions: literature (Cui CB et al.; Usui T et al.); cited from earlier work
[2] = system: microtubule-associated protein (MAP)-dependent microtubule assembly; conditions: literature (Usui T et al., Biochem J 1998); cited from earlier work
[3] = system: drug-sensitive, and drug-resistant gastric carcinoma and breast cancer cells; assay: Time course of mitoxantrone accumulation (flow cytometry); assay type: cell-based, human; conditions: 10 µM mitoxantrone and TPS-A for increasing time periods (Fig 5A, 5B)
Protocol: Cellular mitoxantrone accumulation was determined according to the procedure described in Lage H et al., FEBS Lett 2001;503:179-84. Briefly, 4 x 10^5 cells were seeded out in 6-well plates 78 hours prior to the experiment. Incubation with mitoxantrone (0, 1,5 and 10 µg/ml) was performed for 60 minutes at 37°C and 70-80 % cellular confluence. For kinetics of intracellular enrichment of mitoxantrone, cells were exposed to 10 µg/ml mitoxantrone for 0, 5, 10 and 60 min. Cells were washed with ice-cold PBS, trypsinized and resuspended in 4 °C PBS at a concentration of 4 x 10^5 cells/ml. Intracellular fluorescence of mitoxantrone was determined by flow cytometry (Becton-Dickinson, San Jose, CA). The cells were excited at 480 nm and emission was measured at 630 nm. A minimum of 10^4 cells was analyzed for each sample. All assays were performed at least in three independent experiments, each time with triplicate wells.
To analyze the time course of MDR modulating effects of TPS-A, drug-sensitive, and drug-resistant gastric carcinoma and breast cancer cells were incubated with 10 µM mitoxantrone and TPS-A for increasing time periods.

Structure (SMILES): COc1ccc2c(C[C@@H]3NC(=O)[C@@H]4CCCN4C3=O)c(CC=C(C)C)[nH]c2c1 [TPS-A, tryprostatin A]
- final concentration arresting cell cycle progression at the G2/M phase [1]: 125 µM
- final concentration inhibiting MAP-dependent microtubule assembly / cell cycle progression at the M phase [2]: 250 µM
- chemosensitizing effects over time (mitoxantrone accumulation) [3]: time-dependent manner
